Results on seven compounds are retold here after US20240425571A1, “GLYCOPROTEIN A REPETITIONS PREDOMINANT (GARP)-BINDING ANTIBODIES AND USES THEREOF” (OHIO STATE INNOVATION FOUNDATION, priority 2021, published 2024).

Assay [1] relates to platinum resistant advanced NSCLC. Put plainly: POPLAR database analysis by LRRC32 (GARP) expression. In kind it is in vivo, human. The settings on record: for OS or disease control rate, Atezolizumab vs docetaxel: patients with high GARP expression. The source says: Mechanistically, PD-1 blockade works primarily by targeting the progenitor exhausted population of CD8^+ T cells in the TME (TCF-1 expressing, SlamF6 expressing, PD-1 intermediate to low expressing). These cells deliver the proliferative burst following treatment resulting in increased differentiation to the terminal exhausted population, which is responsible for tumor clearance. […] Thus, we hypothesized GARP expression can contribute to PD-1/L1 ICB resistance. To address this hypothesis, we first mined the POPLAR database which compared PD-L1 blockade Atezolizumab with chemotherapy (i.e., docetaxel) for the platinum resistant advanced NSCLC. In this multi-center international phase II trial, bulk RNAseq data from pre-treatment tumors were available for 86 patients enrolled primarily in the US sites. We divided these patients into GARP high and low expression group with median expression level of LRRC32 transcript as the cutoff. […] To further address this hypothesis, we tested the combination therapy of anti-GARP antibody huPIIO-1 and PD-1 blockade in murine Lewis Lung Carcinoma (LLC) and CMT-167 lung cancer models, both of which are considered immunologically cold tumors with resistance to single agent PD-1 ICB. To do so, the human GARP KI mice were challenged with LCC followed by treatment with 200 μg/mouse of Isotype, huPIIO-1, anti-PD-1 antibody, or a combination of huPIIO-1 and PD-1 every 3 days starting on day 8 post tumor challenge for a total of 4 injections.

Assay [2] relates to MB-49 Bladder Cancer cells. Put plainly: MB-49 bladder cancer model in hLRRC32KI mice. The note with it: FTY720 2 mg/kg every two days, 6 doses, with PIIO-1.
Procedure: A. 1×10^5 MB-49 Bladder Cancer cells were injected s.c. on the right flank of hLRRC32KI mice. […] Representative tumor curve. B. 1×10^5 MB-49 Bladder cancer cells were injected s.c. on the right flank of hLRRC32KI mice. […] Tumors were collected and perform flow cytometry on day 10. Frequency of CD8+ T cells as a proportion of live CD45+ lymphocytes (left). 1×10^5 MB-49 Bladder Cancer cells were injected s.c. on the right flank of hLRRC32KI mice. […] Tumors were collected and perform flow cytometry on day 22. […] C. Frequency of CD25+Foxp3^+ Tregs in CD4+ tumor-infiltrating T cells (left). […] UMAP dimension reduction of tumor-infiltrating CD8+ T cells from B after staining with 33 markers and spectral flow cytometry analysis. Shown is the data gated on live CD45+CD3+CD8+ T cells, subsampled on 5000 cells per sample Unsupervised clustering analysis was done using FlowSOM algorithm with an elbow method approach for cluster number determination. E. Heatmap of D showing expression levels of indicated markers by each cluster. […] Cluster differences were measured by two-tailed Student's t test.
A. Experimental scheme. […] Overall survival is analyzed by log-rank (Mantel-Cox) test. […]
A. 1×10^5 MB-49 Bladder Cancer cells were injected s.c. in the right flank of hLRRC32KI mice. […] B. Quantification of panel A. 1×10^5 MB-49 Bladder Cancer cells were injected s.c. on the right flank of hLRRC32KI mice. […]
The next assay concerns B16-F1 melanomas. Put plainly: B16-F1 melanoma, adoptive T cell therapy with anti-platelet agents. The settings on record: for anti-tumor effect: aspirin and clopidogrel added to Cy, no T cells; for antigen-specific T cells in blood, ILNs and spleens: aspirin and clopidogrel concurrent with ACT; for efficacy and relapse-free survival: aspirin and clopidogrel plus Cy and adoptive Pmel T cell transfer. It is filed as in vivo, mouse.

Another assay has as its system Baculovirus. The assay is described as follows: Baculovirus (BV) ELISA for non-specific binding. For orientation: In an ELISA, binding on a coated surface is turned into a signal by an enzyme label.
The mark [3] stands for this setting: patients with low GARP expression.

Procedure for Baculovirus: Baculovirus (BV) ELISA was employed as a preliminary assay to evaluate antibody's potential nonspecific binding risk.
In Baculovirus (BV) ELISA, the inventor used Rituxan Mab as reference. […] If a clone only has binding on BV, but not on 293 cells, it will be considered as having a low risk of non-specific binding.
Methods—Baculovirus ELISA. Plates are coated with 50 μl of 1:500 diluted Baculovirus sample in PBS in each well. Plates are kept at 4° C. for overnight. The plates are washed with 300 μL of wash buffer ×3 and 200 μl blocking buffer (1% BSA) is added at RT for 60 min. Plates are washed with 300 μl of wash buffer ×3 and 100 μl of diluted Abs are added at different concentrations/well, followed by RT incubation for 1 hr. Plates are washed with 300 μl of wash buffer ×6 and 100 μl of 1:5000 HRP conjugated second Ab in PBS is added followed by RT incubation for 1 hr. The plates are washed with 300 μl of wash buffer ×6. Developing buffer is added and the plate is read.

With `CC(=O)O[C@@]12CO[C@@H]1C[C@H](O)[C@@]1(C)C(=O)[C@H](O)C3=C(C)[C@@H](OC(=O)[C@H](O)[C@@H](NC(=O)OC(C)(C)C)c4ccccc4)C[C@@](O)([C@@H](OC(=O)c4ccccc4)[C@H]21)C3(C)C` [docetaxel], the “OS or disease control rate, Atezolizumab vs docetaxel” value in assay [1] was “did not demonstrate any difference”. Besides, in assay [1] (setting [3]), the disease control rate is listed as 9.5%.

As for Atezolizumab: PD-L1 blockade, the “OS or disease control rate, Atezolizumab vs docetaxel” value in assay [1] is given as “did not demonstrate any difference”. Besides, the disease control rate in assay [1] (setting [3]) was found to be 68.2%. Besides, the “overall survival HR, Atezolizumab vs docetaxel” value in assay [1] (patients with low GARP expression, p=0.086) was found to be 1.89.

As for `CCCCCCCCc1ccc(CCC(N)(CO)CO)cc1` [FTY720], the “effect of FTY720 on anti-tumor efficacy of PIIO-1 and T cell infiltration” value in assay [2] was “abrogated the anti-tumor efficacy of PIIO-1 and effectively blocked T cell infiltration”.

Regarding `CC(=O)Oc1ccccc1C(=O)O` [aspirin], in the assay with B16-F1 melanomas, the anti-tumor effect entry is “no anti-tumor effects”; the “antigen-specific T cells in blood, ILNs and spleens” value is “sustained at higher numbers”; the “efficacy and relapse-free survival” value was “highly effective against B16-F1 with relapse-free survival of most mice beyond 3 months”.

Take `COC(=O)[C@H](c1ccccc1Cl)N1CCc2sccc2C1` [clopidogrel]: in the assay on B16-F1 melanomas, the anti-tumor effect result is “no anti-tumor effects”; the “antigen-specific T cells in blood, ILNs and spleens” value is “sustained at higher numbers”; the “efficacy and relapse-free survival” value is listed as “highly effective against B16-F1 with relapse-free survival of most mice beyond 3 months”.

For `O=P1(N(CCCl)CCCl)NCCCO1` (stereo not drawn) [Cy, cyclophosphamide], in the assay with B16-F1 melanomas (Cy alone), the tumor control result is “failed to control tumors”.

With “Rituxan: Rituxan Mab used as reference in BV ELISA [reference compound]”, the “BV ELISA with purified IgG, raw BV binding data” value was 12.1 with Baculovirus (Ab. Conc. 0.15625 ug/ml); 13.7 in the assay on Baculovirus (Ab. Conc. 0.3125 ug/ml); 13.7 in the assay on Baculovirus (Ab. Conc. 0.625 ug/ml); 13.0 in the assay on Baculovirus (Ab. Conc. 1.25 ug/ml); 17.0 in the assay on Baculovirus (Ab. Conc. 2.5 ug/ml); 22.7 in the assay with Baculovirus (Ab. Conc. 5 ug/ml). The “BV ELISA with purified IgG, raw BV binding data” value in the assay on Baculovirus (Ab. Conc. 10 ug/ml) turned out to be 66.0; in the assay on Baculovirus (Ab. Conc. 20 ug/ml), 98.8.
